The text below walks through data of US10774086B2, “GSK-3 inhibitors” (BRISTOL-MYERS SQUIBB COMPANY, priority 2016, dated 2020).

SMILES strings stand for the structures.

One assay addresses GSK3α (Homo sapiens (Human), UniProt P49840). Briefly: GSK3α kinase assay (Caliper LabChip, fluoresceinated peptide substrate). Type of assay: biochemical. Particulars: 250 pM enzyme, 20 uM ATP, 1.5 uM peptide, 20 hours room temperature; read-out: GSK3α IC50 (second value of GSK3β/GSK3α). From the text: IC50 values were derived by non-linear regression analysis.
A further assay has as its system pTau. The assay can be described thus: pTau assay. Type of assay: cell-based.
In the next assay the target is GSK3β (Homo sapiens (Human), UniProt P49841). The assay can be described thus: GSK3β kinase assay (Caliper LabChip, fluoresceinated peptide substrate). Type of assay: biochemical. As to conditions: 250 pM enzyme, 20 uM ATP, 1.5 uM peptide, 20 hours room temperature; read-out: GSK3β IC50 (first value of GSK3β/GSK3α).
GSK3β, sequence (P49841 whole entry, species assumed): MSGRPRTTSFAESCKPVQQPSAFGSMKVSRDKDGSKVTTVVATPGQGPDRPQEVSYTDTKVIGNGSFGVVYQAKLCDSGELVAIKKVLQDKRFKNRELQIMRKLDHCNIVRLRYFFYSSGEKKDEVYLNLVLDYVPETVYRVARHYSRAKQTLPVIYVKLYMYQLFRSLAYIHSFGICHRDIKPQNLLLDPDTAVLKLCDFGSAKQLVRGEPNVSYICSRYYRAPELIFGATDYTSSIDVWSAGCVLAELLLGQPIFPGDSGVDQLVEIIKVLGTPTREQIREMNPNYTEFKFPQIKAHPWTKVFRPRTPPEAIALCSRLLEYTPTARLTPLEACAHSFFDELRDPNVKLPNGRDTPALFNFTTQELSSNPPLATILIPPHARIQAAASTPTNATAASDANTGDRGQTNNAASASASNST

GSK3α, sequence (P49840 whole entry, species assumed): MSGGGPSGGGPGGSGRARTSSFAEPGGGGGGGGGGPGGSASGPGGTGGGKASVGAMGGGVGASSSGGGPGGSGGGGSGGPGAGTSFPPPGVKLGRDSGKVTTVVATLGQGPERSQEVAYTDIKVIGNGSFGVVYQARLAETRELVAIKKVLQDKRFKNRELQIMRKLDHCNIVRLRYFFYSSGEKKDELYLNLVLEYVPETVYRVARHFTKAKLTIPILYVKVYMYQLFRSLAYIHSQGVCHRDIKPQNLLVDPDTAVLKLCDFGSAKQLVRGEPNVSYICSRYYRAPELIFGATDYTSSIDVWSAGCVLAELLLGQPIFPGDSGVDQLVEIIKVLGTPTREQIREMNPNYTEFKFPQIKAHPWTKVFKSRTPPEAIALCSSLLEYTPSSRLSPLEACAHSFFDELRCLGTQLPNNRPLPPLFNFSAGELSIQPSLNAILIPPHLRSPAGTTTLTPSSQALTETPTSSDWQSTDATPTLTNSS
Description for GSK3β: The kinase assay was performed in V-bottom 384-well plates. […] The reaction was incubated at room temperature for 20 hours and terminated by adding 45 μl of 35 mM EDTA to each sample. The reaction mixture was analyzed on the Caliper LabChip3000 (Caliper, Hopkinton, Mass.) by electrophoretic separation of the unphosphorylated substrate and phosphorylated product. […] Compounds were dissolved at 10 mM in dimethylsulfoxide (DMSO) and evaluated at eleven concentrations. IC50 values were derived by non-linear regression analysis.

For the compound `CC1CN(c2ccncc2NC(=O)c2ccnn3cc(-c4ccccc4)nc23)CCO1` (racemic) [Example 14, N-(4-(2-Methylmorpholino)pyridin-3-yl)-2-phenylimidazo[1,2-b]pyridazine-8-carboxamide], the results for the IC50 on GSK3α, with pTau and on GSK3β were 0.4 nM, 58 nM and 0.75 nM, respectively.

Turning to `CC1CN(c2ccncc2NC(=O)c2ccnn3cc(-c4ccccc4)nc23)CCO1` (single isomer, unassigned) [Example 15, N-(4-(2-Methylmorpholino)pyridin-3-yl)-2-phenylimidazo[1,2-b]pyridazine-8-carboxamide], the IC50 came to 0.09 nM on GSK3α, 9.2 nM with pTau and 0.2 nM on GSK3β.

In the case of `CC1CN(c2ccncc2NC(=O)c2ccnn3cc(-c4ccccc4)nc23)CCO1` (single isomer, unassigned) [Example 16, N-(4-(2-Methylmorpholino)pyridin-3-yl)-2-phenylimidazo[1,2-b]pyridazine-8-carboxamide], the IC50 on GSK3α is 0.3 nM; in the assay with pTau, 86 nM; on GSK3β, 0.8 nM.

On to `O=C(Nc1cccnc1)c1ccnn2cc(-c3ccccc3)nc12` [Example 1, 2-Phenyl-N-(pyridin-3-yl)imidazo[1,2-b]pyridazine-8-carboxamide], for which, in the assay with pTau, the IC50 came out at 660 nM.

`Cc1ccncc1NC(=O)c1ccnn2cc(-c3ccccc3)nc12` [Example 2, N-(4-Methylpyridin-3-yl)-2-phenylimidazo[1,2-b]pyridazine-8-carboxamide]: the IC50 on GSK3α turned out to be 0.8 nM; in the assay with pTau, 250 nM; at GSK3β, 3.5 nM.

`CC(C)Oc1ccncc1NC(=O)c1ccnn2cc(-c3ccccc3)nc12` [Example 3, N-(4-Isopropoxypyridin-3-yl)-2-phenylimidazo[1,2-b]pyridazine-8-carboxamide]: the results for the IC50 on GSK3α, in the assay with pTau and at GSK3β were 0.4 nM, 83 nM and 0.7 nM, respectively.

With `O=C(Nc1cnccc1OCC(F)(F)F)c1ccnn2cc(-c3ccccc3)nc12` [Example 4, 2-Phenyl-N-(4-(2,2,2-trifluoroethoxy)pyridin-3-yl)imidazo[1,2-b]pyridazine-8-carboxamide], the results for the IC50 at GSK3α, with pTau and on GSK3β were 0.1 nM, 22 nM and 0.3 nM, respectively.

As for `CS(=O)(=O)c1ccncc1NC(=O)c1ccnn2cc(-c3ccccc3)nc12` [Example 5, N-(4-(Methylsulfonyl)pyridin-3-yl)-2-phenylimidazo[1,2-b]pyridazine-8-carboxamide], the IC50 on GSK3α came to 0.4 nM; with pTau, 120 nM; at GSK3β, 1.5 nM.

In the case of `O=C(Nc1cnccc1-c1ccccc1)c1ccnn2cc(-c3ccccc3)nc12` [Example 6, 2-Phenyl-N-(4-phenylpyridin-3-yl)imidazo[1,2-b]pyridazine-8-carboxamide], the IC50 amounted to 1.1 nM at GSK3α, 900 nM with pTau and 3.6 nM at GSK3β.

For `O=C(Nc1cnccc1-c1ccc(F)cc1)c1ccnn2cc(-c3ccccc3)nc12` [Example 7, N-(4-(4-Fluorophenyl)pyridin-3-yl)-2-phenylimidazo[1,2-b]pyridazine-8-carboxamide], the IC50 on GSK3α is 0.6 nM; on GSK3β, 1.6 nM.

As for `N#Cc1ccc(-c2ccncc2NC(=O)c2ccnn3cc(-c4ccccc4)nc23)cc1` [Example 8, N-(4-(4-Cyanophenyl)pyridin-3-yl)-2-phenylimidazo[1,2-b]pyridazine-8-carboxamide], the figures for the IC50 on GSK3α, in the assay with pTau and at GSK3β were 0.3 nM, 160 nM and 1.1 nM, respectively.

As to `O=C(Nc1cnccc1N1CCCCC1)c1ccnn2cc(-c3ccccc3)nc12` [Example 9, 2-Phenyl-N-(4-(piperidin-1-yl)pyridin-3-yl)imidazo[1,2-b]pyridazine-8-carboxamide], the IC50 at GSK3α worked out at 0.2 nM; on GSK3β, 1.1 nM.

With `N#CC1CCN(c2ccncc2NC(=O)c2ccnn3cc(-c4ccccc4)nc23)CC1` [Example 10, N-(4-(4-Cyanopiperidin-1-yl)pyridin-3-yl)-2-phenylimidazo[1,2-b]pyridazine-8-carboxamide], the IC50 on GSK3α was 0.1 nM; on GSK3β it was 0.2 nM.

Turning to `O=C(Nc1cnccc1N1CCC(F)CC1)c1ccnn2cc(-c3ccccc3)nc12` [Example 11, N-(4-(4-Fluoropiperidin-1-yl)pyridin-3-yl)-2-phenylimidazo[1,2-b]pyridazine-8-carboxamide], the IC50 at GSK3α was found to be 0.2 nM; in the assay with pTau, 24 nM; at GSK3β, 0.3 nM.

As for `O=C(Nc1cnccc1N1CCC(F)(F)CC1)c1ccnn2cc(-c3ccccc3)nc12` [Example 12, N-(4-(4,4-Difluoropiperidin-1-yl)pyridin-3-yl)-2-phenylimidazo[1,2-b]pyridazine-8-carboxamide], the figures for the IC50 on GSK3α, in the assay with pTau and on GSK3β were 0.2 nM, 30 nM and 0.4 nM, respectively.

`O=C(Nc1cnccc1N1CCOCC1)c1ccnn2cc(-c3ccccc3)nc12` [Example 13, N-(4-Morpholinopyridin-3-yl)-2-phenylimidazo[1,2-b]pyridazine-8-carboxamide]: the IC50 at GSK3α is 0.2 nM; with pTau, 36 nM; at GSK3β it was 0.4 nM.

With `C[C@@H]1COCCN1c1ccncc1NC(=O)c1ccnn2cc(-c3ccccc3)nc12` [Example 17, (R)—N-(4-(3-Methylmorpholino)pyridin-3-yl)-2-phenylimidazo[1,2-b]pyridazine-8-carboxamide], the IC50 at GSK3α was determined as 1 nM; in the assay with pTau it was 180 nM; on GSK3β, 3.4 nM.

As to `C[C@H]1COCCN1c1ccncc1NC(=O)c1ccnn2cc(-c3ccccc3)nc12` [Example 18, (S)—N-(4-(3-Methylmorpholino)pyridin-3-yl)-2-phenylimidazo[1,2-b]pyridazine-8-carboxamide], the IC50 on GSK3α was 0.3 nM; with pTau, 5.7 nM; at GSK3β it was 0.3 nM.

Regarding `COc1cncc(NC(=O)c2ccnn3cc(-c4ccccc4)nc23)c1` [Example 19, N-(5-Methoxypyridin-3-yl)-2-phenylimidazo[1,2-b]pyridazine-8-carboxamide], the figures for the IC50 with pTau and at GSK3β were 3200 nM and 37 nM, respectively.

For the compound `O=C(Nc1cnc(F)cc1N1CCC(F)(F)CC1)c1ccnn2cc(-c3ccccc3)nc12` [Example 20, N-(4-(4,4-Difluoropiperidin-1-yl)-6-fluoropyridin-3-yl)-2-phenylimidazo[1,2-b]pyridazine-8-carboxamide], the figures for the IC50 at GSK3α, in the assay on pTau and on GSK3β were 0.6 nM, 160 nM and 2.3 nM, respectively.

Consider `CC1CN(c2cc(F)ncc2NC(=O)c2ccnn3cc(-c4ccccc4)nc23)CCO1` (centres unmarked) [Example 21, N-(6-fluoro-4-(2-methylmorpholino)pyridin-3-yl)-2-phenylimidazo[1,2-b]pyridazine-8-carboxamide], for which the IC50 on GSK3α amounted to 0.2 nM; in the assay on pTau it was 140 nM; at GSK3β it was 0.6 nM.

On to `O=C(Nc1cnc(Cl)cc1N1CCC(F)(F)CC1)c1ccnn2cc(-c3ccccc3)nc12` [Example 22, N-(6-Chloro-4-(4,4-difluoropiperidin-1-yl)pyridin-3-yl)-2-phenylimidazo[1,2-b]pyridazine-8-carboxamide], for which the IC50 at GSK3α was 2.9 nM; with pTau it was 2000 nM; at GSK3β it was 14 nM.

For the compound `COc1ccccc1-c1cn2nccc(C(=O)Nc3cnccc3N3CCC(F)(F)CC3)c2n1` [Example 23, N-(4-(4,4-Difluoropiperidin-1-yl)pyridin-3-yl)-2-(2-methoxyphenyl)imidazo[1,2-b]pyridazine-8-carboxamide], the figures for the IC50 on GSK3α, with pTau and at GSK3β were 0.6 nM, 110 nM and 0.8 nM, respectively.

With `COc1ccccc1-c1cn2nccc(C(=O)Nc3cnccc3N3CCOC(C)C3)c2n1` (centres unmarked) [Example 24, 2-(2-Methoxyphenyl)-N-(4-(2-methylmorpholino)pyridin-3-yl)imidazo[1,2-b]pyridazine-8-carboxamide], the results for the IC50 on GSK3α, with pTau and at GSK3β were 0.4 nM, 79 nM and 0.6 nM, respectively.

For `O=C(Nc1cnccc1N1CCOCC1)c1ccnn2cc(-c3ccc(C(F)(F)F)cc3)nc12` [Example 25, N-(4-Morpholinopyridin-3-yl)-2-(4-(trifluoromethyl)phenyl)imidazo[1,2-b]pyridazine-8-carboxamide], the IC50 on GSK3α worked out at 0.2 nM; with pTau it was 49 nM; on GSK3β, 0.8 nM.

As to `CC1CN(c2ccncc2NC(=O)c2ccnn3cc(-c4ccc(C(F)(F)F)cc4)nc23)CCO1` (centres unmarked) [Example 26, N-(4-(2-Methylmorpholino)pyridin-3-yl)-2-(4-(trifluoromethyl)phenyl)imidazo[1,2-b]pyridazine-8-carboxamide], the IC50 at GSK3α was found to be 0.6 nM; in the assay with pTau it was 120 nM; at GSK3β, 1.4 nM.

Consider `O=C(Nc1cnccc1N1CCCCC1)c1ccnn2ccnc12` [Example 27, N-(4-(Piperidin-1-yl)pyridin-3-yl)imidazo[1,2-b]pyridazine-8-carboxamide], for which the values for the IC50 on GSK3α, with pTau and on GSK3β were 11.4 nM, 760 nM and 19.8 nM, respectively.

As for `O=C(Nc1cnccc1N1CCC(F)(F)CC1)c1ccnn2ccnc12` [Example 28, N-(4-(4,4-Difluoropiperidin-1-yl)pyridin-3-yl)imidazo[1,2-b]pyridazine-8-carboxamide], the values for the IC50 at GSK3α, with pTau and on GSK3β were 2 nM, 140 nM and 4.6 nM, respectively.

Take `O=C(Nc1cnccc1N1CCOCC1)c1ccnn2cc(-c3cccnc3)nc12` [Example 36, N-(4-Morpholinopyridin-3-yl)-2-(pyridin-3-yl)imidazo[1,2-b]pyridazine-8-carboxamide]: the figures for the IC50 at GSK3α and at GSK3β were 0.4 nM and 1.3 nM, respectively.
